{
  "source": "paper PMC8001558",
  "about": "(Viruses, 2021)",
  "key": {"[1]": {"test_system": "GII.4 VA387 (N/N) P-dimers", "format": "binding", "settings": "CSP NMR; buffer B: 75 mM sodium phosphate, 100mM NaCl (pH 7.3); 170 µM protein; 298 K; listed as 3′SL"}, "[2]": {"test_system": "MNV07 P-domain", "format": "binding"}, "[3]": {"test_system": "VA387 P-dimers", "parameters": "method as in ref 31 = [31]", "settings": "MS based data; cited from earlier work"}, "[4]": {"target": "GII.4 Saga (N/N) P-dimers (Norovirus GII.4, UniProt B5BTR7)", "experiment": "biochemical", "format": "binding"}, "[5]": {"target": "GII.4 MI001 (N/N) P-dimers (Norovirus Hu/GII.4/MI001/2011/USA, UniProt S5FWF8)", "experiment": "biochemical", "format": "binding", "settings": "CSP NMR titration; 75 mM sodium phosphate, 100 mM NaCl (pH 7.3); 220 µM protein"}, "[6]": {"target": "GII.4 Saga (P-domain) (Norovirus GII.4, UniProt B5BTR7)", "experiment": "Re-evaluation of previously reported STD NMR titrations, one-site binding model", "parameters": "species or system human norovirus (HuNoV)"}, "[7]": {"target": "GII.10 P-dimers", "parameters": "method as in ref 28 = [28]", "settings": "STD NMR titrations stopped at first step of the curve; cited from earlier work"}, "[8]": {"target": "MNV CW1 P-domain (Norovirus, UniProt Q80J94, K296E)", "experiment": "CSP NMR binding experiment with MNV P-domain", "parameters": "species or system murine norovirus (MNV)", "settings": "MNV P-domains saturated with GCDCA"}, "[9]": {"target": "P-domain of the VP1 capsid protein of human norovirus GII.4 strain MI001 (human norovirus GII.4 strain MI001)"}, "[10]": {"target": "P-domain of the VP1 capsid protein of human norovirus GII.4 strain VA387 (human norovirus GII.4 strain VA387)"}, "[11]": {"target": "P-domain of the VP1 capsid protein of murine norovirus strain MNV07 (murine norovirus strain MNV07)"}, "[12]": {"settings": "25 mM Tris-d11 pH* 7.40, 300 mM NaCl, 298 K, refit of titration data of ref [2], read-out: KD in mM (reevaluated)"}},
  "note": "Where two headings read alike, the source gives them in different places.",
  "data": [
    {"molecule": "C[C@@H]1O[C@@H](O[C@@H]2[C@@H](O[C@H]3O[C@H](CO)[C@H](O)[C@H](O)[C@H]3O)[C@@H](O)[C@@H](CO)O[C@@H]2N=[N+]=[N-])[C@@H](O)[C@H](O)[C@@H]1O", "note": "(hydrate or solvate) [B-Tri 3, blood group B trisaccharide (azido group at the anomeric position)]", "values": [
      {"measurement": "melting point", "result": "204 to 206", "unit": "°C"}
    ]},
    {"molecule": "CC(=O)N[C@H]1[C@H]([C@H](O)[C@H](O)CO)O[C@@](O[C@H]2[C@@H](O)[C@@H](CO)O[C@@H](O[C@H]3[C@H](O)[C@@H](O)[C@H](O)O[C@@H]3CO)[C@@H]2O)(C(=O)O)C[C@@H]1O", "note": "[3′SL 6, 3′-sialyllactose]", "values": [
      {"measurement": "binding (tested negative/positive)", "setting": "[1]", "result": "no binding"},
      {"measurement": "binding (tested negative/positive)", "setting": "[2]; STD, buffer B (20 mM sodium acetate, 100 mM NaCl, pH 5.3), with GCDCA, no EDTA, no Ca2+, listed as 3′SL", "result": "no saturation transfer"},
      {"measurement": "binding to VA387 P-dimers", "setting": "[3]", "result": "neither 3′-sialyllactose nor 6′-sialyllactose bind"}
    ]},
    {"molecule": "CC(=O)N[C@H]1[C@H]([C@H](O)[C@H](O)CO)O[C@@](OC[C@H]2O[C@@H](O[C@H]3[C@H](O)[C@@H](O)[C@H](O)O[C@@H]3CO)[C@H](O)[C@@H](O)[C@H]2O)(C(=O)O)C[C@@H]1O", "note": "[6′-sialyllactose, reference compound]", "values": [
      {"measurement": "binding to VA387 P-dimers", "setting": "[3]", "result": "neither 3′-sialyllactose nor 6′-sialyllactose bind"}
    ]},
    {"molecule": "CC(=O)N[C@H]1[C@@H](O[C@H]2[C@@H](O)[C@@H](CO)O[C@@H](O)[C@@H]2O[C@@H]2O[C@@H](C)[C@@H](O)[C@@H](O)[C@@H]2O)O[C@H](CO)[C@H](O)[C@@H]1O", "note": "[A-Tri 2, blood group A trisaccharide]", "values": [
      {"measurement": "Kd", "setting": "[4]", "result": "4.3 ± 0.4", "unit": "mM"}
    ]},
    {"molecule": "C[C@@H]1O[C@@H](O[C@@H]2[C@@H](O[C@H]3O[C@H](CO)[C@H](O)[C@H](O)[C@H]3O)[C@@H](O)[C@@H](CO)O[C@@H]2N=[N+]=[N-])[C@@H](O)[C@H](O)[C@@H]1O", "note": "[B-Tri 3, blood group B trisaccharide (azido group at the anomeric position)]", "values": [
      {"measurement": "Kd", "setting": "[5]", "result": "4.3 ± 0.4", "unit": "mM"}
    ]},
    {"molecule": "O=C(O)CC(O)(CC(=O)O)C(=O)O", "note": "[Citrate, reference compound]", "values": [
      {"measurement": "Kd", "setting": "[6]; KD in mM (reevaluated)", "result": "22.9 ± 2.7", "unit": "mM"},
      {"measurement": "dissociation constants", "setting": "[7]", "result": "sub millimolar"}
    ]},
    {"molecule": "CO[C@@H]1O[C@@H](C)[C@@H](O)[C@@H](O)[C@@H]1O", "note": "[Fuc 8, methyl α-L-fucopyranoside]", "values": [
      {"measurement": "Kd", "setting": "[6]; 25 mM BisTris-d19 pH* 6.5, 300 mM NaCl, 298 K, refit of titration data of ref [2], read-out: KD in mM (reevaluated)", "result": "15.1 ± 1.6", "unit": "mM"},
      {"measurement": "Kd", "setting": "[6]; 25 mM PBS pH* 5.50, 300 mM NaCl, 298 K, refit of titration data of ref [2], read-out: KD in mM (reevaluated)", "result": "21.9 ± 2.6", "unit": "mM"},
      {"measurement": "Kd", "setting": "[6]; 25 mM PBS pH* 6.50, 300 mM NaCl, 298 K, refit of titration data of ref [2], read-out: KD in mM (reevaluated)", "result": "18.4 ± 2.6", "unit": "mM"},
      {"measurement": "Kd", "setting": "[6]; 25 mM PBS pH* 7.40, 300 mM NaCl, 298 K, refit of titration data of ref [2] (Mallagaray et al., Angew Chem Int Ed 2015), read-out: KD in mM (reevaluated)", "result": "15.6 ± 1.9", "unit": "mM"},
      {"measurement": "Kd", "setting": "[6]; 25 mM sodium acetate-d3, pH* 4.50, 300 mM NaCl, 298 K, refit of titration data of ref [2], read-out: KD in mM (reevaluated)", "result": "24.5 ± 4.1", "unit": "mM"}
    ]},
    {"molecule": "CC(CCC(=O)NCC(=O)O)C1CCC2C3C(O)CC4CC(O)CCC4(C)C3CCC12C", "note": "(centres unmarked) [GCDCA, glycochenodeoxycholic acid, reference compound]", "values": [
      {"measurement": "STD effects (saturation transfer to ligand)", "setting": "[2]; 80 µM protein, 20 mM sodium acetate buffer (pH 5.3), 250 µM GCDCA, 2 mM 3′SL, 298 K, 600 MHz", "result": "show STD effects"}
    ]},
    {"molecule": "CO[C@@H]1O[C@H](CO)[C@H](O)[C@H](O)[C@H]1O[C@@H]1O[C@@H](C)[C@@H](O)[C@@H](O)[C@@H]1O", "note": "[H-Dis 12, blood group H-disaccharide]", "values": [
      {"measurement": "Kd", "setting": "[6]; [12]", "result": "26.5 ± 2.7", "unit": "mM"}
    ]},
    {"molecule": "C[C@H](O)[C@@H](O)[C@@H](O)[C@H](O)C=O", "note": "[L-fucose]", "values": [
      {"measurement": "dissociation constants", "setting": "[7]", "result": "sub millimolar"}
    ]},
    {"molecule": "[Cl-].[Cl-].[Mg+2]", "note": "[Mg^2+]", "values": [
      {"measurement": "binding of bivalent metal ions", "setting": "[8]", "result": "detected binding"}
    ]},
    {"molecule": "[Mn+2]", "note": "[Mn^2+]", "values": [
      {"measurement": "binding of bivalent metal ions", "setting": "[8]", "result": "detected binding"}
    ]},
    {"molecule": "CO[C@@H]1O[C@H](CO)[C@H](O)[C@H](O[C@H]2O[C@H](CO)[C@H](O)[C@H](O)[C@H]2O)[C@H]1O[C@@H]1O[C@@H](C)[C@@H](O)[C@@H](O)[C@@H]1O", "note": "[b -Methyl glycoside of B-trisaccharide, reference compound]", "values": [
      {"measurement": "Kd", "setting": "[6]; [12]", "result": "5.2 ± 0.5", "unit": "mM"}
    ]},
    {"molecule": "P-domain of the VP1 capsid protein of human norovirus GII.4 strain MI001 (domain or fragment)", "values": [
      {"measurement": "stoichiometry N", "setting": "[9]", "result": 2}
    ]},
    {"molecule": "P-domain of the VP1 capsid protein of human norovirus GII.4 strain VA387 (domain or fragment)", "values": [
      {"measurement": "stoichiometry N", "setting": "[10]", "result": 2}
    ]},
    {"molecule": "P-domain of the VP1 capsid protein of murine norovirus strain MNV07 (domain or fragment)", "values": [
      {"measurement": "stoichiometry N", "setting": "[11]", "result": 2}
    ]}
  ]
}
